# Results from patent publication US10167453B2, “Saccharide oxidase, and production method for same and use of same” (AMANO ENZYME INC., priority 2012, dated 2019).
# Read-outs that look alike come from different tables or passages of the source.
# B1: Saccharide oxidase: protein having saccharide oxidase activity purified from Acremonium chrysogenum NBRC30055, about 63 kDa, amino acid sequence SEQ. ID. NO:10 (protein, listed as Acremonium chrysogenum)
# chain: MRSLAPLLSIAALARASPVDTSLLTRQETLNTCLEAAELSYVDVNSEDWEDAIVPHNLRVPVVPRAVVYATATEQIQAAVKCAVESEIRVSAKSGGHSYASMGLGGEDGSLVIQLDHWHDVTLRDDNTAVVSAGTRLGVVALELYAQGKRGISHGTCPSVGVGGHVVHGGYGFSSHTHGLALDAVVGANVVLADGSLVHASETENTDLFWALRGGGSSFGIVAEFEFETFDVSHNFSYFSIDSDISQETAEEATASLLAFQDALEEGLMDRKLNMRLSLGRPKVTLEAVYHGAKEDGRKALELFDDILGLNWSSNRTRANEADWLTMLESWTYGDPLNITYPYEGHDNAYTSSLVTRHIPEDAMASFMTYWKGVGQDRETPNWWLQMDVHGDANSRISEVDADSTAYSHRDKLWLFQFSSPLNPLRPDPEAAFALVNGYMDSIKDHLGDGEWGRYANYIDSELSREDAQTQYWSDHLDKLQAIKAELDPTQVFYNPQSIDPAAVE
# Assays:
# [1] = biological target: Acremonium chrysogenum NBRC30055-derived saccharide oxidase (Hapsidospora chrysogena, UniProt A0A086T4F9); assay: Investigation of substrate specificity; type: biochemical
# Protocol: Using each saccharide indicated in Table 4 shown below as a substrate and in the presence of oxygen, the protein purified in Example 1 described above was reacted for 5 minutes at 37° C. at pH 7.0, and the measurement was conducted in accordance with the aforementioned saccharide oxidase activity measuring method. In addition, regarding the activity toward the glucose as 100%, the relative value of the activity toward each saccharide was calculated, thereby evaluating the substrate specificity.
# [2] = system: OC[C@H]1OC(O)[C@H](O)[C@@H](O)[C@@H]1O; assay: purified protein, by the assay type; conditions: other: saccharide as substrate of the purified protein; pH 7.0; 37.0 °C
# Description: Using the protein purified in the aforementioned Example together with glucose and maltose as substrates, the aforementioned saccharide oxidase activity method was used to measure the activity thereby obtaining Hanes-Woolf plots, from which each Michaelis constant (Km) was obtained.
# [3] = Thermal inactivation after desugaring of egg white; type: physicochemical
# Protocol: 100 μL of the desugared egg white was subjected to a heat treatment at a temperature of 54, 56, and 58° C. for 1, 3, 5, and 8 minutes, respectively, and then cooled on ice, and the residual activity of each enzyme was measured.
# [4] = Investigation of pH stability; type: physicochemical; conditions: pH5.0 to pH10.5, 15 minutes at 37° C.; treatment at pH7.0 = 100%; maltose substrate
# Protocol: (§1) Since a quinoneimine color having absorption band at a wavelength of 550 nm was formed when the enzymatic reaction advanced, the saccharide oxidase activity was measured by measuring the increase in the absorbance at a wavelength of 550 nm per minute.
# The protein solution purified in the aforementioned Example 1 and the buffer solution of each pH used in the aforementioned Example 3 were mixed in equal volumes and treated for 15 minutes at 37° C., and thereafter the activity was measured by the aforementioned saccharide oxidase activity measuring method. As a substrate, maltose was used. In addition, regarding the activity when using monopotassium phosphate-sodium hydroxide buffer solution (pH7.0) for treatment as 100%, each relative value of the activity was calculated. The results are indicated in the drawing-substituting graph of FIG. 3.
# [5] = Production of lactobionic acid (HPLC verification); type: biochemical; conditions: 3 U protein, 0.75 g lactose monohydrate, 23 hours, 40° C., 160 rpm
# Protocol: 3 ml of a solution containing 0.75 g of lactose monohydrate, 0.225 g of potassium carbonate, and 3 U of the protein purified in the aforementioned Example 1 was added and shaken for 23 hours under the condition involving 40° C. and 160 rpm.
# After the reaction, the sample was boiled for 10 minutes and then centrifuged at 15,000 rpm for 10 minutes. The resultant supernatant was filtered through a 0.45 μm filter and subjected to an HPLC analysis.
# [6] = Investigation of thermostability; type: physicochemical
# Protocol: as §1
# The protein solution purified in the aforementioned Example 1 was subjected to a heat treatment for 15 minutes at a temperature of 20° C., 25° C., 30° C., 35° C., 37° C., 40° C., 45° C., 50° C., 55° C., 60° C., 65° C., 70° C., 75° C., and 80° C., and thereafter the residual activity was measured by the aforementioned saccharide oxidase activity method. Regarding the activity with no heat treatment as 100%, each value of the residual activity was calculated. The results are indicated in the drawing-substituting graph of FIG. 5.
# [7] = relative activity 50% or higher versus glucose is judged satisfactory
# [8] = saccharide as substrate, activity toward glucose = 100%, 37° C., pH 7.0, 5 minutes, in the presence of oxygen
molecule,measurement,setting,value
OC[C@H]1O[C@@H](O[C@H]2[C@H](O)[C@@H](O)[C@H](O)O[C@@H]2CO)[C@H](O)[C@@H](O)[C@@H]1O [D(+)-Cellobiose],effect of the saccharide oxidase on the substrate (in words),[1]; [7],satisfactory effect
O=C(CO)[C@@H](O)[C@H](O)[C@H](O)CO [D(−)-Fructose],Relative activity (%),[1]; pH 7,0%
same,effect of the saccharide oxidase on the substrate (in words),[1]; [7],No effect
O=C[C@H](O)[C@@H](O)[C@@H](O)[C@H](O)CO [Galactose],effect of the saccharide oxidase on the substrate (in words),[1]; [7],satisfactory effect
same,Relative activity (%),[1]; [8],79%
same,Relative activity (%),"[1]; saccharide as substrate, activity toward glucose = 100%, 37° C., pH 7.0, 5 minutes, in the presence of oxygen, listed as galactose",about 79%
OC[C@H]1O[C@H](O[C@H]2[C@H](O)[C@@H](O)[C@@H](O[C@H]3[C@H](O)[C@@H](O)[C@@H](O[C@H]4[C@H](O)[C@@H](O)C(O)O[C@@H]4CO)O[C@@H]3CO)O[C@@H]2CO)[C@H](O)[C@@H](O)[C@@H]1O (some centres unmarked) [Maltotetraose],effect of the saccharide oxidase on the substrate (in words),[1]; [7],satisfactory effect
same,Relative activity (%),[1]; [8],60%
same,Relative activity (%),"[1]; saccharide as substrate, activity toward glucose = 100%, 37° C., pH 7.0, 5 minutes, in the presence of oxygen, listed as maltotetraose",about 60%
OC[C@H]1O[C@@](CO)(O[C@H]2O[C@H](CO)[C@@H](O)[C@H](O)[C@H]2O)[C@@H](O)[C@@H]1O [Sucrose],Relative activity (%),[1]; pH 7,0%
same,effect of the saccharide oxidase on the substrate (in words),[1]; [7],No effect
Acremonium chrysogenum NBRC30055-derived saccharide oxidase (Hapsidospora chrysogenum ATCC 11550),Km,[2],8 mM
Lactose monohydrate,effect of the saccharide oxidase on the substrate (in words),[1],satisfactory effect
Maltoheptaose,Relative activity (%),[1]; [8],24%
Maltohexaose,Relative activity (%),[1]; [8],28%
Maltopentaose,Relative activity (%),[1]; [8],39%
Maltose monohydrate,effect of the saccharide oxidase on the substrate (in words),[1],satisfactory effect
Maltotriose,effect of the saccharide oxidase on the substrate (in words),[1]; [7],satisfactory effect
same,Relative activity (%),[1]; [8],92%
same,Relative activity (%),"[1]; saccharide as substrate, activity toward glucose = 100%, 37° C., pH 7.0, 5 minutes, in the presence of oxygen, listed as maltotriose",about 92%
B1,residual enzyme activity in desugared egg white after heat treatment,"[3]; 54 and 56° C., 1, 3, 5 and 8 minutes",no substantial reduction in the activity
same,residual enzyme activity in desugared egg white after heat treatment,"[3]; 58° C. for 5 minutes or longer, compared with the glucose oxidase",significant reduction in the activity
same,residual activity after pH treatment,[4],≥ 85%
same,production of lactobionic acid from lactose,[5],production of the lactobionic acid was verified
same,residual activity after heat treatment,"[6]; 15 minutes at 45° C., pH7.0, no heat treatment = 100%",≥ 80%
same,temperature up to which stability was observed,[6]; heat treatment for 15 minutes,up to 45 °C
